Measured values as given in the supplement of paper PMC10307832.

Assays:
Experiment in all cases: relative viability (nuclei count vs DMSO), 5 days (fraction); higher = more cells survive
[1] = compound: O[C@@H](COc1cccc2ncccc12)CN1CCN([C@@H]2c3ccccc3[C@@H]3[C@H](c4ccccc42)C3(F)F)CC1 [Zosuquidar] + CS(=O)(=O)N1CCN(Cc2cc3nc(-c4cccc5[nH]ncc45)nc(N4CCOCC4)c3s2)CC1 [Pictilisib] (partner 1 µM)
Method in brief: (§1)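 After 5 days of treatment, lung cancer cells in 1536-well plates were fixed and stained in a single step (final 0.05% Triton X-100, 1% formaldehyde, 1 ug/ml Hoechst) and their nuclei counted on 4× images. Treatment had been applied by pin tool the day after seeding as one drug alone or as a fixed anchor-drug dose with five library-drug doses (not always all listed) in √10 steps. Relative viability is the nuclei count of treated wells divided by that of vehicle wells, and values are medians of duplicate plates.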

[2] = compound: C1=CC(=CC=C1NC(=S)NNC2=C(C=C(C=C2[N+](=O)[O-])C(F)(F)F)[N+](=O)[O-])F [Kobe2602] + Cc1cc(Nc2cc(N3CCN(C)CC3)nc(Sc3ccc(NC(=O)C4CC4)cc3)n2)n[nH]1 [Tozasertib] (partner 0.1 µM)
Method in brief: as §1

[3] = compound: O[C@@H](COc1cccc2ncccc12)CN1CCN([C@@H]2c3ccccc3[C@@H]3[C@H](c4ccccc42)C3(F)F)CC1 [Zosuquidar] + CC(C)C[C@H](NC(=O)[C@H](Cc1ccccc1)NC(=O)c1cnccn1)B(O)O [Bortezomib] (partner 0.002 µM)
Method in brief: as §1

[4] = compound: O[C@@H](COc1cccc2ncccc12)CN1CCN([C@@H]2c3ccccc3[C@@H]3[C@H](c4ccccc42)C3(F)F)CC1 [Zosuquidar] + O=C(c1cc(Cc2n[nH]c(=O)c3ccccc23)ccc1F)N1CCN(C(=O)C2CC2)CC1 [Olaparib] (partner 8 µM)
Method in brief: as §1

Cell Line	relative viability ([1]; first compound 0.01 µM)	relative viability ([1]; first compound 0.03162 µM)	relative viability ([1]; first compound 0.1 µM)	relative viability ([1]; first compound 0.3162 µM)	relative viability ([1]; first compound 1 µM)	relative viability ([2]; first compound 0.2 µM)	relative viability ([2]; first compound 0.6325 µM)	relative viability ([2]; first compound 2 µM)	relative viability ([2]; first compound 6.325 µM)	relative viability ([2]; first compound 20 µM)	relative viability ([3]; first compound 0.01 µM)	relative viability ([3]; first compound 0.03162 µM)	relative viability ([3]; first compound 0.1 µM)	relative viability ([3]; first compound 0.3162 µM)	relative viability ([3]; first compound 1 µM)	relative viability ([4]; first compound 0.01 µM)	relative viability ([4]; first compound 0.03162 µM)	relative viability ([4]; first compound 0.1 µM)	relative viability ([4]; first compound 0.3162 µM)	relative viability ([4]; first compound 1 µM)
PC-3 [JPC-3]	0.768	0.539	0.664	0.677	0.738	0.885	0.836	0.849	0.858	0.807	0.849	0.879	0.706	0.765	0.863	1.09	1.18	0.873	1.09	1.1
HARA	0.589	0.404	0.312	0.5	0.49	0.117	0.102	0.122	0.508	0.123	1.14	1.14	1.08	1.13	1.14	1.13	0.804	0.905	0.936	0.93
NCI-H2347	0.627	0.495	0.467	0.735	0.647	0.708	0.647	0.512	0.495	0.55	1.2	0.979	1.04	1.22	0.6	0.589	0.545	0.579	0.603	0.475
LOU-NH91	0.536	0.572	0.482	0.543	0.516	0.703	0.703	0.658	0.685	0.739	0.567	0.52	0.484	0.503	0.507	0.845	0.904	0.728	0.97	0.873
LC-2-ad	0.386	0.566	0.41	0.493	0.524	0.478	0.534	0.489	0.453	0.472	1.07	0.975	0.989	1.26	0.933	0.689	0.67	0.693	0.716	0.719
LCLC-97TM1	0.203	0.219	–	0.192	0.226	0.219	0.292	0.175	0.186	0.196	0.433	0.538	–	0.844	0.464	0.307	0.453	–	0.335	0.515
EKVX	0.427	0.446	0.346	0.455	0.444	0.391	0.284	0.362	0.365	0.278	1.05	0.975	0.839	0.984	1.02	0.854	0.833	–	0.913	0.847
NCI-H441	0.449	0.435	0.512	–	0.595	0.692	0.638	0.543	0.708	0.635	0.43	0.476	0.444	–	0.641	0.708	0.61	0.738	0.482	0.525
HCC-827	1.08	1.14	0.774	1.05	0.994	0.444	0.448	0.391	0.416	0.425	0.931	0.961	1.05	1.05	0.844	0.688	0.567	0.518	0.65	0.622
NCI-H838	0.423	0.428	0.284	0.488	0.441	0.242	0.249	0.242	0.255	0.254	0.824	0.605	0.749	0.813	0.884	0.758	0.74	0.814	0.825	0.847
CAL-12T	0.349	0.494	–	0.533	0.423	0.292	0.282	0.248	0.21	0.244	0.974	1.15	–	1.03	0.735	0.739	0.715	0.741	0.793	0.706
NCI-H2342	–	–	–	–	–	0.575	0.546	0.408	0.491	0.542	–	–	–	–	–	0.459	0.544	0.421	0.501	0.439
SW 900	–	–	–	–	–	0.561	0.621	0.458	0.379	0.512	–	–	–	–	–	0.853	0.93	–	1.06	0.838
IA-LM	0.306	0.394	0.342	0.315	0.324	–	–	–	–	–	0.925	0.797	0.975	1.03	0.84	0.817	0.805	0.82	0.879	0.885
EPLC-272H	0.308	0.344	0.311	0.272	0.35	0.224	0.305	0.291	0.302	0.409	0.844	0.956	0.998	1.16	0.938	0.755	0.912	0.909	0.96	0.745
A-427	0.665	0.538	0.567	0.91	0.77	0.233	0.242	0.198	0.229	0.218	0.923	0.971	0.87	1.06	0.901	0.757	0.711	0.76	0.771	0.819
NCI-H727	0.36	0.555	0.228	0.391	0.506	0.716	0.583	0.741	0.702	0.504	0.876	0.938	0.708	0.787	0.828	0.72	0.772	–	0.746	0.7
